Experiment: ORAC (OARC-fluorescein) determination of the antioxidant effect, Trolox as standard
Settings: OARC-fluorescein method; calibration curve with Trolox as standard
Method: The antioxidant effect and the synergy between the individual components were determined according to the OARC-fluorescein method, in which inhibition time and the inhibition degree are reflected in a measured value. The measurements were performed by means of the device Synergy H4 by BioTek Inc., the calculated values were taken from a calibration curve with Trolox used as a standard. The method is described in more detail, for example, in the publications by Prior et. al., J. Agric Food. Chem. 50, pp. 4437-4444 […] and Dovalos et. al, ibid 52, pp. […] (2004). These publications are incorporated into this patent application by reference with regard to the description of the measuring method.

COc1cc(C=CC(=O)O)cc(OC)c1O (stereo in doubt) [Example V2, Sinapinic acid]
ORAC value, Measured: 11.459

O=C(O)/C=C/c1ccc(O)c(O)c1 [Example V1, Caffeic acid]
ORAC value, Measured: 21.587

Reference: patent US9078872B2, “Antioxidant composition” (Symrise AG, priority 2013, dated 2015)
